Source: patent publication US20230233569A1 (Revolution Medicines, Inc., priority 2020, published 2023)

How the values were obtained:
[1] = tested on: Capan-1 (K-Ras G12V); assay: CellTiter-Glo cell viability assay, 5-day treatment; format: cell-based; settings: Homo sapiens, CAPAN-1, 120 h, 5-day treatment; read-out: Capan-1 Cell Viability assay data (K-Ras G12V, IC50)
In short: (§1)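 Five-day compound treatment of plated cells; luminescent read after ~30 min at RT. Percent-of-DMSO data fit to a four-parameter logistic model.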

[2] = tested on: NCI-H358 (K-Ras G12C); assay: as above; format: cell-based; settings: Homo sapiens, NCI-H358, 120 h, 5-day treatment; read-out: H358 Cell Viability assay data (K-Ras G12C, IC50)
In short: as §1

[3] = biological target: NRAS WT (Homo sapiens, UniProt P01111+P62937); assay: Disruption of BRAF RBD interaction with Ras (FRET / MOA assay, with Cyclophilin A); format: biochemical; settings: NRAS WT; read-out: NRAS WT FRET data IC50
Sequence of NRAS WT (P01111 whole entry): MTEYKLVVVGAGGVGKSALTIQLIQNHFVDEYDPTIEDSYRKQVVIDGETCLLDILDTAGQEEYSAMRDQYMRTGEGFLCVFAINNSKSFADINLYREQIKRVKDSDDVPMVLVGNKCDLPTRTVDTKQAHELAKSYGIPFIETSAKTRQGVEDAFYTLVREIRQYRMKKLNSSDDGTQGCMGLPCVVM
Sequence of NRAS WT (P62937 whole entry): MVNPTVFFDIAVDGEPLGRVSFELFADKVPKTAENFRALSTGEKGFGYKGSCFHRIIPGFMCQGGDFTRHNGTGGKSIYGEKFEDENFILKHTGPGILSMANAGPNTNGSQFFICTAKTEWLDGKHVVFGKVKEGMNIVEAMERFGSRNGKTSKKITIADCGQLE
In short: (§2)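 IC50 reflects compound-driven Ras:Cyclophilin A ternary complex displacing BRAF RBD, read as lowered TR-FRET ratio relative to DMSO after Eu anti-His (10 nM) and APC anti-GST (50 nM) detection for 1.5 h. Prior incubation 3 h, 25° C, with 12.5 nM GMPPNP-loaded Ras, 50 nM BRAF RBD, 25 μM Cyclophilin A; top compound 30 μM.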

[4] = biological target: NRAS Q61R (Homo sapiens, UniProt P01111+P62937, Q61R); assay: as above; format: biochemical; settings: NRAS Q61R; read-out: NRAS Q61R FRET data IC50
Sequence of NRAS Q61R (P01111 whole entry Q61R): as the sequence (P01111 whole entry) above, with Q61R counted along it
Sequence of NRAS Q61R (P62937 whole entry): as the sequence (P62937 whole entry) above
In short: as §2

[5] = biological target: NRAS Q61K (Homo sapiens, UniProt P01111+P62937, Q61K); assay: as above; format: biochemical; settings: NRAS Q61K; read-out: NRAS Q61K FRET data IC50
Sequence of NRAS Q61K (P01111 whole entry Q61K): as the sequence (P01111 whole entry) above, with Q61K counted along it
Sequence of NRAS Q61K (P62937 whole entry): as the sequence (P62937 whole entry) above
In short: as §2

[6] = biological target: KRAS Q61H (Homo sapiens, UniProt P01116+P62937, Q61H); assay: as above; format: biochemical; settings: KRAS Q61H; read-out: KRAS Q61H FRET data IC50
Sequence of KRAS Q61H (P01116 1-169 isoform P01116-2 Q61H limits assumed): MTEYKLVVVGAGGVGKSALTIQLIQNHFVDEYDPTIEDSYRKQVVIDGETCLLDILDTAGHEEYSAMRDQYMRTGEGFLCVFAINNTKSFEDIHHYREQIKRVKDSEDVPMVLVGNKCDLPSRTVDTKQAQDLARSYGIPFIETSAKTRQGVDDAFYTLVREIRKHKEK
Sequence of KRAS Q61H (P62937 whole entry): as the sequence (P62937 whole entry) above
In short: as §2

[7] = biological target: KRAS G13C (Homo sapiens, UniProt P01116+P62937, G13C); assay: as above; format: biochemical; settings: read-out: KRAS G13C FRET data, IC50
Sequence of KRAS G13C (P01116 1-169 isoform P01116-2 G13C): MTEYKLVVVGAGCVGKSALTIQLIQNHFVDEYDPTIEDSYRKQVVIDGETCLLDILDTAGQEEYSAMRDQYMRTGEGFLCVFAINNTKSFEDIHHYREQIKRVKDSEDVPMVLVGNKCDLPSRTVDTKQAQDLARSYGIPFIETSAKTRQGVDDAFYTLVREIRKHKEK
Sequence of KRAS G13C (P62937 whole entry): as the sequence (P62937 whole entry) above
In short: (§3)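 TR-FRET: nucleotide-loaded K-Ras mutant or WT with Cyclophilin A and BRAF RBD, compound 10-point 3-fold from 30 μM final, 3 h at 25° C, then anti-His Eu (10 nM) and anti-GST APC (50 nM) for 1.5 h. Decreased FRET ratio versus DMSO gives IC50.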

[8] = biological target: KRAS G12S (Homo sapiens, UniProt P01116+P62937, G12S); assay: as above; format: biochemical; settings: read-out: KRAS G12S FRET data, IC50
Sequence of KRAS G12S (P01116 1-169 isoform P01116-2 G12S limits assumed): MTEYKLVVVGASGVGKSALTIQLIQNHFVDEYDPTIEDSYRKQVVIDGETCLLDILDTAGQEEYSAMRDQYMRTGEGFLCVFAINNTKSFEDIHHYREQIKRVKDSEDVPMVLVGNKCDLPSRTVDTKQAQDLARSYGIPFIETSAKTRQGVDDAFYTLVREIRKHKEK
Sequence of KRAS G12S (P62937 whole entry): as the sequence (P62937 whole entry) above
In short: as §3

[9] = biological target: KRAS G12D (Homo sapiens, UniProt P01116+P62937, G12D); assay: as above; format: biochemical; settings: read-out: KRAS G12D FRET data, IC50
Sequence of KRAS G12D (P01116 1-169 isoform P01116-2 G12D limits assumed): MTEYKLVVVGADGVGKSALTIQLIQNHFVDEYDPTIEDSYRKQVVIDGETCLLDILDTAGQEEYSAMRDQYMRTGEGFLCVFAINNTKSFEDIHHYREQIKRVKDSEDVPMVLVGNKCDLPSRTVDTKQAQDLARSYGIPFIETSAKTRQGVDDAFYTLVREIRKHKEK
Sequence of KRAS G12D (P62937 whole entry): as the sequence (P62937 whole entry) above
In short: as §3

[10] = biological target: NRAS G12C (Homo sapiens, UniProt P01111+P62937, G12C); assay: as above; format: biochemical; settings: NRAS G12C; read-out: NRAS G12C FRET data IC50
Sequence of NRAS G12C (P01111 whole entry G12C): as the sequence (P01111 whole entry) above, with G12C counted along it
Sequence of NRAS G12C (P62937 whole entry): as the sequence (P62937 whole entry) above

[11] = biological target: KRAS WT (Homo sapiens, UniProt P01116+P62937); assay: as above; format: biochemical; settings: KRAS WT; read-out: KRAS WT FRET data IC50
Sequence of KRAS WT (P01116 1-169 isoform P01116-2 limits assumed): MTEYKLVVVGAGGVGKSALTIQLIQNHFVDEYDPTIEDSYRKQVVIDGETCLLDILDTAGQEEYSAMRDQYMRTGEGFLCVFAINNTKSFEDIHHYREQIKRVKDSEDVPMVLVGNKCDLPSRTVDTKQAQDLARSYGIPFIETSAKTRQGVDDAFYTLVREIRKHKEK
Sequence of KRAS WT (P62937 whole entry): as the sequence (P62937 whole entry) above
In short: as §3

[12] = biological target: KRAS G12V (Homo sapiens, UniProt P01116+P62937, G12V); assay: as above; format: biochemical; settings: KRAS G12V; read-out: KRAS G12V FRET data IC50
Sequence of KRAS G12V (P01116 1-169 isoform P01116-2 G12V limits assumed): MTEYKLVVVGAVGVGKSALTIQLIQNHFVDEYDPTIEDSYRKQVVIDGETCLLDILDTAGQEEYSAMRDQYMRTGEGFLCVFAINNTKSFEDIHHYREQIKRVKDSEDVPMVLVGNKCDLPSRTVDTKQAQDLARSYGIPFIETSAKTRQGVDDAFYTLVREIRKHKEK
Sequence of KRAS G12V (P62937 whole entry): as the sequence (P62937 whole entry) above
In short: as §3

[13] = biological target: KRAS G12C (Homo sapiens, UniProt P01116+P62937, G12C); assay: as above; format: biochemical; settings: read-out: KRAS G12C FRET data, IC50
Sequence of KRAS G12C (P01116 1-169 isoform P01116-2 G12C): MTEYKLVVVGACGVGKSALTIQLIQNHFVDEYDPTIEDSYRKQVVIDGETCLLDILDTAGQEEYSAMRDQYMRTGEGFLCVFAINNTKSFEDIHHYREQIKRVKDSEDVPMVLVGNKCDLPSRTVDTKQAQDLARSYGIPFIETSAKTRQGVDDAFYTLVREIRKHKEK
Sequence of KRAS G12C (P62937 whole entry): as the sequence (P62937 whole entry) above
In short: as §3

[14] = biological target: KRAS G13D (Homo sapiens, UniProt P01116+P62937, G13D); assay: as above; format: biochemical; settings: KRAS G13D; read-out: KRAS G13D FRET data IC50
Sequence of KRAS G13D (P01116 1-169 isoform P01116-2 G13D limits assumed): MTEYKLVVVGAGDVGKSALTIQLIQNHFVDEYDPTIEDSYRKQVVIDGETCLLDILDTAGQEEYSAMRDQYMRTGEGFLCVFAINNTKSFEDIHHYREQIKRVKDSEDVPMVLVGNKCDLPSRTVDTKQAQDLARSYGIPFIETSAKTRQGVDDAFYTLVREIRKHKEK
Sequence of KRAS G13D (P62937 whole entry): as the sequence (P62937 whole entry) above
In short: as §3

| SMILES | IC50 [1] | IC50 [2] | IC50 [3] | IC50 [4] | IC50 [5] | IC50 [6] | IC50 [7] | IC50 [8] | IC50 [9] | IC50 [10] | IC50 [11] | IC50 [12] | IC50 [13] | IC50 [14] |
| --- | --- | --- | --- | --- | --- | --- | --- | --- | --- | --- | --- | --- | --- | --- |
| CCn1c(-c2cccnc2[C@H](C)OC)c2c3cc(ccc31)-c1csc(n1)C[C@H](NC(=O)[C@H](C(C)C)N(C)C(=O)N1CC([C@H](C)OC)C1)C(=O)N1CCC[C@H](N1)C(=O)OCC(C)(C)C2 (atropisomer, axis not shown) [Example A279] | 10 to 100 nM | 10 to 100 nM | 10 to 100 nM | 10 to 100 nM | 10 to 100 nM | 10 to 100 nM | 100 to 1000 nM | 100 to 1000 nM | 100 to 1000 nM | 10 to 100 nM | 100 to 1000 nM | 10 to 100 nM | 10 to 100 nM | 100 to 1000 nM |
| CCn1c(-c2cccnc2[C@H](C)OC)c2c3cc(ccc31)-c1csc(n1)C[C@H](NC(=O)[C@H](C(C)C)N(C)C(=O)N1CC3(CC(N(C)C)C3)C1)C(=O)N1CCC[C@H](N1)C(=O)OCC(C)(C)C2 (atropisomer, axis not shown) [Example A280] | 10 to 100 nM | 10 to 100 nM | 100 to 1000 nM | 100 to 1000 nM | 10 to 100 nM | 10 to 100 nM | 100 to 1000 nM | 100 to 1000 nM | 100 to 1000 nM | 10 to 100 nM | 100 to 1000 nM | 100 to 1000 nM | 10 to 100 nM | 100 to 1000 nM |
| CCn1c(-c2cccnc2[C@H](C)OC)c2c3cc(ccc31)-c1csc(n1)C[C@H](NC(=O)[C@H](C(C)C)N(C)C(=O)N1CC(N(C)C3CC3)C1)C(=O)N1CCC[C@H](N1)C(=O)OCC(C)(C)C2 (atropisomer, axis not shown) [Example A285] | 10 to 100 nM | 10 to 100 nM | 100 to 1000 nM | 100 to 1000 nM | 10 to 100 nM | 10 to 100 nM | 100 to 1000 nM | 100 to 1000 nM | 100 to 1000 nM | 10 to 100 nM | 100 to 1000 nM | 100 to 1000 nM | 10 to 100 nM | 100 to 1000 nM |
| CCn1c(-c2cccnc2[C@H](C)OC)c2c3cc(ccc31)-c1csc(n1)C[C@H](NC(=O)[C@H](C(C)C)N(C)C(=O)N1CCN(C(=O)CN(C)C)CC1)C(=O)N1CCC[C@H](N1)C(=O)OCC(C)(C)C2 (atropisomer, axis not shown) [Example A290] | 10 to 100 nM | 10 to 100 nM | 10 to 100 nM | 100 to 1000 nM | 10 to 100 nM | 10 to 100 nM | 100 to 1000 nM | 100 to 1000 nM | 100 to 1000 nM | 10 to 100 nM | 10 to 100 nM | 100 to 1000 nM | 10 to 100 nM | 100 to 1000 nM |
| CCn1c(-c2cccnc2[C@H](C)OC)c2c3cc(ccc31)-c1csc(n1)C[C@H](NC(=O)[C@H](C(C)C)N(C)C(=O)N1CC(OC(F)F)C1)C(=O)N1CCC[C@H](N1)C(=O)OCC(C)(C)C2 (atropisomer, axis not shown) [Example A302] | 10 to 100 nM | < 10 nM | 100 to 1000 nM | 100 to 1000 nM | 10 to 100 nM | 10 to 100 nM | 100 to 1000 nM | 100 to 1000 nM | 100 to 1000 nM | 10 to 100 nM | 100 to 1000 nM | 100 to 1000 nM | 10 to 100 nM | 100 to 1000 nM |
| CCn1c(-c2cccnc2[C@H](C)OC)c2c3cc(ccc31)-c1csc(n1)C[C@H](NC(=O)[C@H](C(C)C)N(C)C(=O)N1CCN(C(=O)CO)CC1)C(=O)N1CCC[C@H](N1)C(=O)OCC(C)(C)C2 (atropisomer, axis not shown) [Example A306] | 10 to 100 nM | < 10 nM | 10 to 100 nM | 10 to 100 nM | 10 to 100 nM | 10 to 100 nM | 100 to 1000 nM | 100 to 1000 nM | 100 to 1000 nM | 10 to 100 nM | 10 to 100 nM | 100 to 1000 nM | 10 to 100 nM | 100 to 1000 nM |
| CCn1c(-c2cccnc2[C@H](C)OC)c2c3cc(ccc31)-c1csc(n1)C[C@H](NC(=O)[C@H](C(C)C)N(C)C(=O)N1CCO[C@@H](C)C1)C(=O)N1CCC[C@H](N1)C(=O)OCC(C)(C)C2 (atropisomer, axis not shown) [Example A309] | 10 to 100 nM | < 10 nM | 10 to 100 nM | 10 to 100 nM | 10 to 100 nM | 10 to 100 nM | 100 to 1000 nM | 100 to 1000 nM | 100 to 1000 nM | 10 to 100 nM | 100 to 1000 nM | 100 to 1000 nM | 10 to 100 nM | 100 to 1000 nM |
| CCn1c(-c2cccnc2[C@H](C)OC)c2c3cc(ccc31)-c1csc(n1)C[C@H](NC(=O)[C@H]1CCCO1)C(=O)N1CCC[C@H](N1)C(=O)OCC(C)(C)C2 (atropisomer, axis not shown) [Example A315] | 100 to 1000 nM | 100 to 1000 nM | 100 to 1000 nM | 1000 to 10000 nM | 100 to 1000 nM | 100 to 1000 nM | 100 to 1000 nM | 100 to 1000 nM | 1000 to 10000 nM | 100 to 1000 nM | 100 to 1000 nM | 100 to 1000 nM | 100 to 1000 nM | 100 to 1000 nM |
| CCn1c(-c2cccnc2[C@H](C)OC)c2c3cc(ccc31)-c1csc(n1)C[C@H](NC(=O)[C@H](C(C)C)N(C)C(=O)N1CCCOCC1)C(=O)N1CCC[C@H](N1)C(=O)OCC(C)(C)C2 (atropisomer, axis not shown) [Example A335] | 10 to 100 nM | < 10 nM | 10 to 100 nM | 10 to 100 nM | 10 to 100 nM | 10 to 100 nM | 100 to 1000 nM | 10 to 100 nM | 100 to 1000 nM | 10 to 100 nM | 10 to 100 nM | 100 to 1000 nM | 10 to 100 nM | 100 to 1000 nM |
